Results taken from ChEMBL document CHEMBL1130980, “Novel antiproliferative falcarindiol furanocoumarin ethers from the root of Angelica japonica” (1998).
In brackets after ≈: the same amount, converted by molar mass.

Assay: Inhibitory activity in MTT assay against MK-I cell
Format: functional
Conditions: Homo sapiens, read-out: ED50 (the source's name)

Compound | EC50 [µg/mL]
C=C[C@H](O)C#CC#CC/C=C\CCCCCCC [FALCARINOL] | 0.3 (≈ 1.23 µM)
C=C[C@H](O)C#CC#CC(/C=C\CCCCCCC)OC(C)=O (some centres undefined) | 3.2 (≈ 10.6 µM)
C=CC(O)C#CC#CC(O)/C=C\C(O)CCCCCC (centres undefined) | 2.2 (≈ 7.96 µM)
C=CC(O)C#CC#C[C@@H](O)/C=C\CCCCCCC (single isomer, unassigned) [FALCARINDIOL] | 3.2 (≈ 12.3 µM)
